Experimental data reported in patent US11918570B2, “Method of treatment for prevention of glucocorticoid toxicity and/or enhancement of muscle regeneration via neutrophil elastase inhibition” (The Research Foundation for The State University of New York, priority 2020, dated 2024).
Entries after “also recorded” stand apart in the source; their conditions may differ.

Experiments:
[1] = test system: dystrophin-deficient mice (mdx4cv strain); test: Inflammation transcripts in muscle by RNA sequencing; assay type: in vivo, mouse; conditions: elastase inhibitor alone, 12 weeks; FIGS. 11A, 11B
Protocol: In FIGS. 11A and 11B, mRNA was extracted from muscles of the mice, then transcripts were quantified using next generation sequencing. […] Mdx^4cv mice were treated for 12 weeks with either placebo (Plcb, gray boxes) or prednisolone (1 mg/Kg/day, cyan boxes) alone or in combination with the elastase inhibitor alvelestat (Alv) at two different doses (10 mg/Kg/day, pink boxes; 25 mg/Kg/day, purple boxes). Each box-and-whiskers graph represent the levels of a marker of the immune response detected by RNA sequencing (n=6 per treatment group, Y-axis scale on the left). The overlayed line graphs show the effect size of each treatment vs Plcb calculated and plotted as Cohen's d (Y-axis scale on the right). Significance of each treatment vs Plcb: ***=p<0.001, **=p<0.01, *=p<0.05.

[2] = test system: myoblasts isolated from a patient affected by Duchenne muscular dystrophy; test: NE-induced myoblast death, DMD patient myoblasts treated with human NE; assay type: cell-based; conditions: for rescue of NE-induced myoblast death (number of live cells as percentage of untreated Control): DMD patient myoblasts treated with human NE, FIG. 1D; for effectiveness against human NE compared with mouse NE: comparison of FIG. 1D (hNE) and FIG. 1E (mNE)
Excerpt: (§1) The number of live cells in each condition was counted and plotted as percentage of the number of live cells in the untreated (Control) condition.

[3] = test system: dystrophin-deficient mice (mdx4cv strain); test: Muscle mass: quadriceps wet weight and diaphragm cross-sectional area; assay type: in vivo, mouse; conditions: 12 weeks; for prednisolone-induced loss of muscle mass / muscle atrophy: in combination with prednisolone, FIGS. 15, 16; for muscle mass (quadriceps wet weight): single agent, FIG. 15
Excerpt: FIG. 15 illustrates the wet weight of quadriceps muscle groups dissected from dystrophic mice at treatment start (baseline, Pre-Tr) or after the 12 week administration period, at the time of euthanasia.

[4] = test system: dystrophin-deficient mice (mdx4cv strain); test: Diaphragm strip tetanic force and residual force; assay type: in vivo, mouse
[5] = test system: dystrophin-deficient mice (mdx4cv strain); test: Muscle fibrosis, Sirius Red staining of gastrocnemius cryosections; assay type: in vivo, mouse; conditions: 12 weeks, FIG. 13
Protocol: FIG. 13 illustrates fibrosis levels of the various cohorts, assessed on cryosections of gastrocnemius muscles from the mice, which were stained with Sirius Red to detect fibrillar collagen. Untreated dystrophic mice were euthanized at the age when treatments start (Pre-tr) and used as baseline for disease progression. Images were analyzed for their fluorescence intensity (Sirius red emits fluorescence in the yellow-red band of the light spectrum) as a measure of collagen abundance per unit area (e.g. per pixel), which was multiplied by the total Sirius red+ area as a proxy for 3D evaluation of fibrillar collagen content.

[6] = test system: dystrophin-deficient mice (mdx4cv strain); test: Myofiber necrosis (mIgG uptake on immunostained cryosections); assay type: in vivo, mouse; conditions: 12 weeks, FIG. 10
Protocol: In FIG. 10, myofiber necrosis was measured by calculating the percentage of myofibers that uptake mouse immunoglobulins (mIgG) on immunostained cryosections. IgG are normally present only in the blood and the extracellular matrix within tissues, but are uptaken by necrotic cells that have permeable plasma membranes due to cell damage damage.

[7] = test system: dystrophin-deficient mice (mdx4cv strain); test: Serum muscle creatine kinase (mCK) activity; assay type: in vivo, mouse; conditions: 12 weeks; FIG. 6
Excerpt: FIG. 6 is a graphical illustration of muscle creatine kinase (mCK) activity for various cohorts of tested mice (including mice pre-treatment with any elastase inhibitor or glucocorticoid) at the conclusion of the 12 week administration period. FIG. 7 is a graphical illustration of MyoD protein levels for various cohorts of tested mice (including mice pre-treatment with any elastase inhibitor or glucocorticoid) at the conclusion of the 12 week administration period. FIG. 8 is a graphical illustration of liver pathology scores for various cohorts of tested mice (including mice pre-treatment, with any elastase inhibitor or glucocorticoid) at the conclusion of the 12 week administration period.

[8] = biological target: T1, Human NE (hNE) (Homo sapiens, UniProt P08246); test: Human NE activity in vitro, cumulative elastase activity over time; assay type: biochemical; conditions: hNE incubated with various concentration of inhibitor; FIGS. 1A-1C
T1 sequence (P08246 30-267): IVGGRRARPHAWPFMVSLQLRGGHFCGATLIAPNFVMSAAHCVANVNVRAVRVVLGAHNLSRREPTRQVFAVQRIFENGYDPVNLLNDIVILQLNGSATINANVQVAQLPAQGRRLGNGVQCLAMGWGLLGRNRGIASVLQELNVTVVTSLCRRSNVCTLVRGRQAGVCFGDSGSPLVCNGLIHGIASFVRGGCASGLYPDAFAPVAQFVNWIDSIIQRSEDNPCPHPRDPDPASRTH
Protocol: In FIGS. 1A-1C Human NE (hNE) was incubated for the indicated amount of time (X-axis) either alone (Control, black line) or in the presence of various concentration of inhibitor, as indicated in each graph (colored lines). The cumulative elastase activity detected over time is plotted.
Several methods for measuring elastase enzymatic activity are known in the art. Merely by way of example, elastase activity can be determined by measuring the fluorescence emitted by a fluorigenic peptide such as MeOSuc-Ala-Ala-Pro-Val-AFC or Suc-Ala-Ala-Ala-AMC. Fluorescence may be measured, for example, using a plate reader. Other suitable assays for measuring elastase activity will be known to the skilled person. These may include measuring the product generated by incubation with a fluorescently labelled peptide such as 5-FAM-Arg-Glu-Ala-Val-Val-Tyr or 5-FAM-Ala-Ala-Ala-Phe-Tyr-Asp using an instrument that detects the size of the fluorescently labelled probe.

[9] = test system: dystrophin-deficient mice (mdx4cv strain); test: 12-week oral treatment of mdx4cv mice, overall efficacy; assay type: in vivo, mouse; conditions: elastase inhibitor orally, concomitantly with oral prednisolone
Protocol: FIG. 1F is a graphical illustration of data gathered from in vivo testing efficacy of a placebo, as compared to the elastase inhibitor Alvelestat, alone at various administration concentrations, and in combination with the glucocorticoid prednisolone at various administration concentrations. In this, and the following figures, the abbreviation “Plcb” refers to administration of a placebo, the abbreviation “Pred” refers to administration of prednisolone at 1 mg/kg/day, the abbreviation “Alv10” refers to the administration of the elastase inhibitor alvelestat at 10 mg/kg/day, and the abbreviation “Alv25” refers to the administration of the elastase inhibitor alvelestat at 25 mg/kg/day.
The administration of the various compounds occurred over a 12-week period, in a controlled randomized, double blinded test using dystrophin-deficient mice (mdx4cv strain). In FIG. 1F, beginning during the tenth week of the test, the mice were exposed to an activity wheel, with the cumulative distance plotted on the y-axis and the number of days spent with the exercise wheel plotted on the x-axis.

[10] = test system: myoblasts from a mouse model of Duchenne muscular dystrophy (mdx4cv); test: NE-induced myoblast death, mdx4cv mouse myoblasts treated with mouse NE; assay type: cell-based; conditions: FIG. 1E
Excerpt: as §1

SMILES | rescue of NE-induced myoblast death (number of live cells as percentage of untreated Control) [2] | effectiveness against human NE compared with mouse NE [2] | muscle mass (quadriceps wet weight) [3] | inhibiting human NE activity in vitro [8] | rescue of NE-induced myoblast death (number of live cells as percentage of untreated Control) [10] | other results
Cc1c(-c2ccnn2C)cc(C(=O)NCc2ccc(S(C)(=O)=O)cn2)c(=O)n1-c1cccc(C(F)(F)F)c1 [Alvelestat] | similarly effective at rescuing NE-induced myoblast cell death; also recorded: similarly effective at blocking NE-induced myoblast death | most effective against human NE | increased it | similarly potent | similarly effective at blocking NE-induced myoblast death | inflammation (immune response transcripts) [1]: does not significantly affect inflammation; prednisolone-induced loss of muscle mass / muscle atrophy [3]: partly rescued the prednisolone-induced loss of muscle mass in a dose-dependent manner that appears inversely correlated; prednisolone-induced loss of muscle mass / muscle atrophy ([3]; listed as AZD9668): reduces prednisolone induced muscle atrophy; diaphragm weakness (specific tetanic force, residual force) ([4]; alone and in combination with prednisolone, FIGS. 17-19): affects diaphragm weakness independent of muscle loss in a complex manner; muscle fibrosis ([5]; alone): decreases muscle fibrosis; prednisolone-induced fibrosis ([5]; in combination with prednisolone): prevents prednisolone-induced fibrosis; myofiber necrosis ([6]; alvelestat alone, 10 and 25 mg/kg/day): decreases myofiber necrosis in a dose-dependent manner; also recorded: reduces necrosis; myofiber necrosis / myofiber stability ([6]; combined with prednisolone 1 mg/kg/day): additive affect on myofiber stability; serum mCK levels (muscle damage) [7]: lowers serum mCK levels; prednisolone efficacy [9]: enhances prednisolone efficacy
CC(=O)C1=C(C)N(c2cccc(C(F)(F)F)c2)C(=O)N[C@@H]1c1ccc(C#N)nc1 [BAY-678] |  |  |  |  | similarly effective at blocking NE-induced myoblast death | 
COc1cc(C(C)C)c2c(c1)S(=O)(=O)N(COc1cc(=O)n3cccc(OCCN4CCCCC4)c3n1)C2=O [SSR69071] | similarly effective at rescuing NE-induced myoblast cell death; also recorded: similarly effective at blocking NE-induced myoblast death | most effective against human NE |  | similarly potent | similarly effective at blocking NE-induced myoblast death | 
C[C@]12C=CC(=O)C=C1CC[C@@H]1[C@@H]2[C@@H](O)C[C@@]2(C)[C@H]1CC[C@]2(O)C(=O)CO [prednisolone] |  |  | dramatically decreased muscle mass |  |  | residual force at 15 seconds after peak force (percentage of the peak force) ([4]; diaphragm strips, 20 second tetanus, FIG. 19): decline in residual force, which is greater for prednisolone alone
